Measurements from patent publication US20060183221A1, “Method for neural differentiation of embryonic stem cells using protease passaging techniques” (priority 2003, published 2006).

Tested on: differentiating mouse ES cells (ES-J1)
Assay: Apoptosis (TUNEL staining) in differentiating mouse ES cells incubated with ceramide analogs
Type: cell-based
Conditions: for cell death: 20 hours with 75 μM S18; for TUNEL stained cells: 15 hours with 75 μM S16 or S18, or 35 μM C2-ceramide
Method: In vitro neural differentiation of mouse ES cells (ES-J1, ES-D3) followed a serum deprivation protocol as described previously (Hancock, et al., 2000, Biochem. Biophys. Res. Commun. 271: 418-421). The differentiation stages are outlined in FIG. 2. Briefly, ES cells were grown on gamma-irradiated feeder fibroblasts for four days in Knockout DMEM/15% Knockout serum replacement, supplemented with ESGRO (LIF; Chemicon; Cat No. ESG1106) at a concentration of […] medium. ES cells were then grown for another four days on gelatin-coated bacterial culture dishes without a fibroblast feeder layer, and were then grown for three days in Knockout DMEM/15% heat-inactivated ES qualified Fetal Bovine Serum, supplemented with 10^3 units LIF per ml of medium. Upon trypsinization, ES cells were transferred to bacterial culture dishes without gelatin, and embryoid body (EB) formation was induced for four days in Knockout DMEM/10% heat-inactivated ES qualified FBS without LIF (EB4 stage). On the fifth day, floating and loosely attached EBs were rinsed off and transferred to tissue culture dishes. The EBs were allowed to attach to the tissue culture dish surface by incubation for another 24 hours in Knockout DMEM with 10% heat-inactivated ES qualified fetal bovine serum. Neural differentiation due to serum deprivation was induced by cultivation of the EBs for three days in DMEM/F12 (50/50), supplemented with 1×N2 (Invitrogen/Life Technologies; Cat No. 17502, dilution of 1: 100) but without serum (EB8 stage). Serum-deprived EBs were then trypsinized, plated on poly-L-ornithine/laminin-coated tissue culture dishes and grown for four days in DMEM/F12 (50/50), supplemented with N2 and 10 ng/ml FGF-2, but without serum. his incubation period is referred to as neuroprogenitor (NP) stage due to commitment of neuroepithelial precursor cells to neuroprogenitor cells. These cells have committed during the EB stages and were expanded during the NP stage. NPs grown for 48 hours upon replating of trypsinized EBs were referred to as the NP2 stage. On the fifth day of NP formation, the medium was changed to Neurobasal (Invitrogen/Life Technologies; Cat No. 21103-049), with 5% heat-inactivated FBS, and the cells were incubated for another seven days. During this time, NPs fully differentiate to glial cells and neurons. Cells cultured for 24 hours or 96 hours upon changing the medium were referred to as the D1 or D4 stage, respectively.
ES cells were cultured and differentiated to the EB4, EB8, NP2, or D4 stage following the protocol as described above. The ceramide analog S18 was dissolved in ethanol at a concentration of 100 mM and then added to the cells at a final concentration of 75 μM in medium. The cells at the EB8 stage were incubated for 48 hours in the presence of the ceramide analog and were then transplanted into mouse brains.
Differentiating ES cells were grown on cover slips and fixed with 4% paraformaldehyde in phosphate-buffered saline (PBS). Fixed cells were permeabilized with 0.5% Triton X-100 in PBS for 5 minutes at room temperature and unspecific binding sites were saturated by incubation with 3% ovalbumin in PBS for 1 hour at 37° C. The cover slips were then incubated with 5 μg/ml primary antibody (anti-ceramide clone 15B4 mouse IgM, Alexis; anti-PAR-4 rabbit IgG, Santa Cruz; anti-PCNA rabbit IgG, Santa Cruz; anti-nestin clone 401 rat IgG, BD Pharmingen) in 0.1% ovalbumin/PBS, followed by incubation with the appropriate fluorescence-labeled secondary antibody (5 μg/ml Alexa 546 conjugated anti-mouse IgG, Molecular Probes; Alexa 488 conjugated anti-rabbit IgG, Molecular Probes, Cy3 conjugated anti-mouse IgM, Jackson) for 2 hours at 37° C. The nuclei were stained by treatment with 2 μg/ml Hoechst 33258 in PBS for 30 minutes at room temperature. Apoptotic nuclei were stained using the fluorescein FragEL TUNEL assay (Oncogene) according to the manufacturer's instructions. […]

## CCCCCCCC/C=C\CCCCCCCC(=O)NC(CO)CO [S18, N-(2-hydroxy-1-(hydroxymethyl)ethyl)-oleoylamide]
EB8 and NP2 stages
  cell death: high degree of cell death
EB8 stage
  TUNEL stained cells: 45±10%
NP2 stage
  TUNEL stained cells: 70±10%
Differentiated neurons
  cell death: unaffected
